# The source made the active and inactive calls.
# How the values were obtained:
# Vero [1] = experiment: cells; type: functional, cell-based; conditions: Chlorocebus sabaeus
# [2] = target: T1, Endoribonuclease toxin MazF (Escherichia coli K-12, UniProt P0AE70); experiment: substrate-only fluorescence increase artefacts – biochemical, single-stranded RNase substrate, counter-screen for MazEF activator project, dose response (AID 588502); type: functional
# T1 sequence (P0AE70 whole entry): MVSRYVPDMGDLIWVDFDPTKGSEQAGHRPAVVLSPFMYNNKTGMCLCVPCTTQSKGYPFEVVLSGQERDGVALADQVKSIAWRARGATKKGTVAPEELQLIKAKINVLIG
# [3] = M. tuberculosis H37Rv growth inhibitors, H37Rv strain (AID 1626); type: functional
# Vero [4] = experiment: cells; type: functional; conditions: Chlorocebus sabaeus
# [5] = viability of PTEN-deleted HCT116 cells – cell-based, HCT116 PTEN knockout, dose response (AID 1047); type: functional;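 further: HCT116 colon tumor cells with PTEN knocked out; cells exposed to compound for 60 hours before readout; potency for loss of cell viability measured by luminescence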
# [6] = DRD fibroblast viability loss – cell-based, non-viral oncogenic, luminescence, dose response (AID 1934); type: functional; conditions: Homo sapiens
# [7] = target: T1, Endoribonuclease toxin MazF; experiment: activation of MazEF endoribonuclease cleavage – biochemical, fluorescence, single-stranded RNA substrate, uHTS hits, dose response (AID 588481); type: functional
# [8] = viability of HCT116 lacking mutant beta-catenin – cell-based, human colon tumor, dose response (AID 1045); type: functional;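 further: HCT116 colon tumor cells with beta catenin knocked out; cells exposed to compound for 60 hours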
# BJ [9] = experiment: cells; type: functional, cell-based; conditions: Homo sapiens
# BJ [10] = experiment: BJ-TERT-LT-ST fibroblast viability loss – cell-based, RAS-independent, luminescence, dose response (AID 1935); type: functional; conditions: Homo sapiens;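 further: BJ fibroblasts immortalized with TERT plus LT and ST oncogenes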
# BJ [11] = experiment: BJ-TERT fibroblast viability loss – cell-based, RAS-independent, luminescence, dose response (AID 1933); type: functional; conditions: Homo sapiens
# [12] = Luminescence Cell-Based Dose Retest to Confirm Inhibitors of Cancer Stem Cells. [Related pubchem assays (depositor defined):AID2717, AID2721]; type: functional; conditions: Homo sapiens
# [13] = reduction of Shn3 3'UTR-driven luciferase in osteoblasts – cell-based, Clone20 osteoblasts, firefly luciferase, cherry-picked, dose response (AID 624132); type: functional;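 further: firefly luciferase luminescence from reporter carrying the Shn3 3'UTR in osteoblasts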
# [14] = target: T2, Replicative DNA helicase DnaB (Mycobacterium tuberculosis, UniProt P9WMR3); experiment: DnaB intein splicing inhibitors, dose response, biochemical, cell-free fluorescence (AID 449749); type: functional
# T2 sequence (P9WMR3 whole entry): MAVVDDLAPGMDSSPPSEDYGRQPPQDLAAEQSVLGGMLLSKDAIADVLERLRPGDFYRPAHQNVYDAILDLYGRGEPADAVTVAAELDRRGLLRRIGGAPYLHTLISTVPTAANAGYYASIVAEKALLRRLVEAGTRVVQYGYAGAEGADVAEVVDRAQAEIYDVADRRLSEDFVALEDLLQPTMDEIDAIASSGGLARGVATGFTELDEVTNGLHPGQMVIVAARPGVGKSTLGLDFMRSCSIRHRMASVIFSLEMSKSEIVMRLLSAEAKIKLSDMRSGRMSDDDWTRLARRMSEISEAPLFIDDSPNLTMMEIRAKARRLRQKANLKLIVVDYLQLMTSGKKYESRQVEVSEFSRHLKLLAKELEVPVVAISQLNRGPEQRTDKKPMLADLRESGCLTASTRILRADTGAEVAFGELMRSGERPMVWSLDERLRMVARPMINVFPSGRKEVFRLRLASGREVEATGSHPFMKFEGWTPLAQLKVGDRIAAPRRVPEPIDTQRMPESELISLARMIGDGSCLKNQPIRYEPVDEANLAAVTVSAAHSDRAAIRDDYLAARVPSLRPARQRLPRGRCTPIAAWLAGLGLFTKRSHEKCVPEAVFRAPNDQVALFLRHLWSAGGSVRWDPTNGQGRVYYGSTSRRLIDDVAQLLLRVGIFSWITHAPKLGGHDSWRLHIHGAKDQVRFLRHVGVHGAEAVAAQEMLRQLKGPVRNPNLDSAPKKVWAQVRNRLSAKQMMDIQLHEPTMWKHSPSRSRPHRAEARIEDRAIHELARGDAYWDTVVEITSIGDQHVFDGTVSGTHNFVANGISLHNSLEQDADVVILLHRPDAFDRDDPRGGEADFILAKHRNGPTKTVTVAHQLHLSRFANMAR
# [15] = non-specific 3'UTR reporter inhibition in Clone20-Shn3RL – cell-based, Renilla luciferase, cherry-picked, counter-screen for Shn3 inhibitor project, dose response (AID 624133); type: functional
# Protein RecA = target: T3, Protein RecA (Mycobacterium tuberculosis, UniProt P9WHJ3); experiment: Fluorescence Cell-Free Homogeneous Dose Retest to Identify Inhibitors of RecA-Intein Splicing Activity. [Related pubchem assays (depositor defined):AID2097, AID2223, AID489010, AID492950]; type: functional
# T3 sequence (P9WHJ3 whole entry): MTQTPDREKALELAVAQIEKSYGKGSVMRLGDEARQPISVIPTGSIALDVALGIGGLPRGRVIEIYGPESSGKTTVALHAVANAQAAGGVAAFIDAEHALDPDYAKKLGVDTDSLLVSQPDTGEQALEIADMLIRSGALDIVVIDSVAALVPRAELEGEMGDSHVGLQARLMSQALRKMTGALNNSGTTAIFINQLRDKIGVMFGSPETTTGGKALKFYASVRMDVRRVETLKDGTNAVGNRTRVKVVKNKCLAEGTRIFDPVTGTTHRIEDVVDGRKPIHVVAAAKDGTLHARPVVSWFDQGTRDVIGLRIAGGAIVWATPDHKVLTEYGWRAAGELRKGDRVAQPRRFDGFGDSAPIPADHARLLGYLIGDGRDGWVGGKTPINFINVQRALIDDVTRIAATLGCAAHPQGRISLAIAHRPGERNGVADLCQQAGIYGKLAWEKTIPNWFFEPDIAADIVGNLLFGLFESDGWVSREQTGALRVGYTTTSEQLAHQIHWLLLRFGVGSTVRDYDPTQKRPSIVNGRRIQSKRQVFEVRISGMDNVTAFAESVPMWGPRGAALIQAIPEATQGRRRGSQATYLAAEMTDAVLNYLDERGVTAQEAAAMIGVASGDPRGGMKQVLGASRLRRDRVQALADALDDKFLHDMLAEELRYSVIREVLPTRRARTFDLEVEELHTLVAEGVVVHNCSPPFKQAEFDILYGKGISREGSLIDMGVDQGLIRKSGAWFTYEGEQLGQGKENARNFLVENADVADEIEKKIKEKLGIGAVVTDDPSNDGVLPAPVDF
# [16] = target: T4, Hepatocyte nuclear factor 4-alpha (Homo sapiens, UniProt P41235); type: functional, cell-based;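 further: biochemical luminescence-based dose-response counterscreen measuring inhibition of HNF4 dimerization, run alongside a screen for blockers of ABHD5–perilipin-5 interaction; split luciferase complementation of HNF4 fusion proteins in cell lysate measuring dimerization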
# T4 sequence (P41235 whole entry): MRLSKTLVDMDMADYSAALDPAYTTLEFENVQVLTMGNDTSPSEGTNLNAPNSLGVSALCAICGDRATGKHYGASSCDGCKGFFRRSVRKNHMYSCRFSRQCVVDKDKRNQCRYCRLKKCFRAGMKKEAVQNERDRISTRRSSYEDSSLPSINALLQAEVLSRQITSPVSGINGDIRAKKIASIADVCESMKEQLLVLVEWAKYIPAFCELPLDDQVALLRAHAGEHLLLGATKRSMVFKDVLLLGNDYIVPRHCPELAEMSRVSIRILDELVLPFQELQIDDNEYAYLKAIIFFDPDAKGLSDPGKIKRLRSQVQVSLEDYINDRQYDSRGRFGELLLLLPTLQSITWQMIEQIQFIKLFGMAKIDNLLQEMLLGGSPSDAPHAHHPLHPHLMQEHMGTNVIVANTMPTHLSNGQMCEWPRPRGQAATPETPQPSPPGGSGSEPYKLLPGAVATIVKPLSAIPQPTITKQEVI
# [17] = loss of viability in HepG2 cells – cell-based, CellTiter-Glo, cherry-picked, cytotoxicity control for Shn3 inhibitor project, dose response (AID 624134); type: functional
# [18] = target: Potassium voltage-gated channel subfamily KQT member 2 (Rattus norvegicus, UniProt O88943, W236L); experiment: potentiation of rat KCNQ2 current – cell-based, automated electrophysiology, mechanism study for KCNQ2 potentiator project, dose response (AID 2603); type: functional
# [19] = target: Serine/threonine-protein phosphatase PP1-alpha catalytic subunit (Homo sapiens, UniProt P62136); experiment: inhibition of protein phosphatase 1 activity – biochemical, fluorescence, dose response (AID 2394)
# [20] = target: Serine/threonine-protein phosphatase (Homo sapiens, UniProt Q9BPW0); experiment: inhibition of protein phosphatase 5 activity – biochemical, fluorescence, dose response (AID 2395)
# Nonstructural protein 1 = Nonstructural protein 1 (Influenza A virus, UniProt Q194T2); type: functional, Influenza A virus (A/California/07/2009(H1N1))
# Genome polyprotein = Genome polyprotein (dengue virus type 2, UniProt P29990); experiment: flavivirus cap methylation enzyme inhibition – biochemical, confirmation dose response, primary screen (AID 588689); type: functional
# [21] = HPDE-C7 pancreatic duct cell viability loss – fluorescence, HTS (AID 430); type: functional, cell-based; conditions: Homo sapiens
# [22] = target: T5, Mannose-6-phosphate isomerase (Homo sapiens, UniProt P34949); experiment: MPI inhibition at elevated mannose 6-phosphate – biochemical, fluorescence intensity, high mannose 6-phosphate, primary screen (AID 1220)
# T5 sequence (P34949 whole entry): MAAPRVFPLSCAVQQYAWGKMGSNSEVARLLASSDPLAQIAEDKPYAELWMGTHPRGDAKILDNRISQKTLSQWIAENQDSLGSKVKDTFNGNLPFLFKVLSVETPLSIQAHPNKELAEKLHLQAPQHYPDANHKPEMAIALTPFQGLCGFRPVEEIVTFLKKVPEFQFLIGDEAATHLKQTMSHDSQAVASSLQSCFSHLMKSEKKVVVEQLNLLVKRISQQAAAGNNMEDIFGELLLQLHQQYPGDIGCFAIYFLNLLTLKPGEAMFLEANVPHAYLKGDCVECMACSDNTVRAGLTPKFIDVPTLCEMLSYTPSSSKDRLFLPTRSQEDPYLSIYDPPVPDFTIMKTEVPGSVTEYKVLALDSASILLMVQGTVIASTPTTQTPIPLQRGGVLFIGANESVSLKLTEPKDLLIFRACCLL
# [23] = viability loss of HPDE-C7K cells – cell-based, fluorescence, HTS, primary screen (AID 431); type: functional; conditions: Homo sapiens
# [24] = target: T5, Mannose-6-phosphate isomerase; experiment: MPI enzyme activity inhibition – biochemical, fluorescence intensity, coupled assay, primary screen (AID 1209)
# [25] = target: Sphingosine 1-phosphate receptor 2 (Homo sapiens, UniProt O95136); experiment: Dose Response Cell Based Assay for Agonists of the S1P2 Receptor of Purchased Analogues. [Related pubchem assays: 729, 843, 854, 736 ]; type: functional
# [26] = Luminescence-based dose response cell-based high throughput screening assay for cytotoxic compounds using the IEC-6 intestinal epithelial cell line. [Related pubchem assays: 1858 (Summary AID.), 1825 (Counterscreen.), 1907 (Confirmation screen.)]; type: functional
# [27] = target: T6, Ubiquitin-conjugating enzyme E2 N (Homo sapiens, UniProt P61088); type: functional;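 further: Dose-response confirmation in a TR-FRET assay detecting UBC13-driven polyubiquitin chain formation, inhibition measured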
# T6 sequence (P61088 whole entry): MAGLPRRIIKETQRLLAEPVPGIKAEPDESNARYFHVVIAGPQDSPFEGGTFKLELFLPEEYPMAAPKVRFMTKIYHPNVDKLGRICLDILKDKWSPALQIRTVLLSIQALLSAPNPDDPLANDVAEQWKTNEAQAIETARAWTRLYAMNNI
# [28] = target: Transitional endoplasmic reticulum ATPase (Homo sapiens, UniProt P55072); experiment: Luminescence dose response biochemical high throughput screening assay for inhibitors of the p97 ATPase: synthesized compounds. [Related pubchem assays: 1481, 1517 ]
# [29] = target: Transitional endoplasmic reticulum ATPase (Homo sapiens, UniProt P55072, C522A); experiment: Luminescence counterscreen assay for p97 inhibitors: dose response biochemical high throughput screening assay to identify inhibitors of the C522A mutant p97 ATPase: synthesized compounds. [Related pubchem assays: 1481, 1517, 1551 ]
# Sequence of Transitional endoplasmic reticulum ATPase (Homo sapiens, UniProt P55072, C522A) (P55072 2-806 C522A limits assumed): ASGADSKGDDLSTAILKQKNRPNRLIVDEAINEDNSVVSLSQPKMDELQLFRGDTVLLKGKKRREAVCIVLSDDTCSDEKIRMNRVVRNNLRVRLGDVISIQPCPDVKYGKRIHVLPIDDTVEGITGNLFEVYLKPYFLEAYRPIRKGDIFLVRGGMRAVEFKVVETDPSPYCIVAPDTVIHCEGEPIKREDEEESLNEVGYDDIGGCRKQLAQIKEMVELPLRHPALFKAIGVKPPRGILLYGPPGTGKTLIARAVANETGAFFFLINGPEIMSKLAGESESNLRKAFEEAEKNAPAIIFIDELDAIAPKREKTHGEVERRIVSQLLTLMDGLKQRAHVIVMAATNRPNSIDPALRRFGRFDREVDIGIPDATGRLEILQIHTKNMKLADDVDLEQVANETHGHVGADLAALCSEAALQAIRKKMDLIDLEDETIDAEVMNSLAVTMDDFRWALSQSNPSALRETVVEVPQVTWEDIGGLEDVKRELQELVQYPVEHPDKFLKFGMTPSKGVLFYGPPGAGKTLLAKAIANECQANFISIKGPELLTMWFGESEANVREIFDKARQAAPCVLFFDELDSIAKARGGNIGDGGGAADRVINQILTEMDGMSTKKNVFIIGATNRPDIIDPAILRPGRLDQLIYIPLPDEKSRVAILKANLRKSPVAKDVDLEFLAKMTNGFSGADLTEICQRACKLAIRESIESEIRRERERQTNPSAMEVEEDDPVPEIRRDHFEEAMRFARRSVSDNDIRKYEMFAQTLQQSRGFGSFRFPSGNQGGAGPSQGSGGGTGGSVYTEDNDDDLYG
# Sequence of Nonstructural protein 1 (Q194T2 whole entry): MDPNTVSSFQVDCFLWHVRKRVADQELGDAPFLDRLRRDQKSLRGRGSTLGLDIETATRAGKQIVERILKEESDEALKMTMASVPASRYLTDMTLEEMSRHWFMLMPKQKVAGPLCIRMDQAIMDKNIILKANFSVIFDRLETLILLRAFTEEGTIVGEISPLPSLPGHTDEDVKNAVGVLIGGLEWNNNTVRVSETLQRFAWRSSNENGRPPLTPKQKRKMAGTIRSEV
# Sequence of Serine/threonine-protein phosphatase PP1-alpha catalytic subunit (P62136 whole entry): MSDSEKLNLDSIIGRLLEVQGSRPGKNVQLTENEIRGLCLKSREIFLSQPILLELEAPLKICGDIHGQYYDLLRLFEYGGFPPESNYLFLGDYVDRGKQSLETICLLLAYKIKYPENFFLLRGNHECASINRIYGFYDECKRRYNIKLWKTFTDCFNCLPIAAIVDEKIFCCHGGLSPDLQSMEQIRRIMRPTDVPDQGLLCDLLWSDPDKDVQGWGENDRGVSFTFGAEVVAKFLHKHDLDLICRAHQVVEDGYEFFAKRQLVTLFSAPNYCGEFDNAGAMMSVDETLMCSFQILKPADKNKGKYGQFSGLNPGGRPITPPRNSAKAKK
# Sequence of Transitional endoplasmic reticulum ATPase (Homo sapiens, UniProt P55072) (P55072 whole entry): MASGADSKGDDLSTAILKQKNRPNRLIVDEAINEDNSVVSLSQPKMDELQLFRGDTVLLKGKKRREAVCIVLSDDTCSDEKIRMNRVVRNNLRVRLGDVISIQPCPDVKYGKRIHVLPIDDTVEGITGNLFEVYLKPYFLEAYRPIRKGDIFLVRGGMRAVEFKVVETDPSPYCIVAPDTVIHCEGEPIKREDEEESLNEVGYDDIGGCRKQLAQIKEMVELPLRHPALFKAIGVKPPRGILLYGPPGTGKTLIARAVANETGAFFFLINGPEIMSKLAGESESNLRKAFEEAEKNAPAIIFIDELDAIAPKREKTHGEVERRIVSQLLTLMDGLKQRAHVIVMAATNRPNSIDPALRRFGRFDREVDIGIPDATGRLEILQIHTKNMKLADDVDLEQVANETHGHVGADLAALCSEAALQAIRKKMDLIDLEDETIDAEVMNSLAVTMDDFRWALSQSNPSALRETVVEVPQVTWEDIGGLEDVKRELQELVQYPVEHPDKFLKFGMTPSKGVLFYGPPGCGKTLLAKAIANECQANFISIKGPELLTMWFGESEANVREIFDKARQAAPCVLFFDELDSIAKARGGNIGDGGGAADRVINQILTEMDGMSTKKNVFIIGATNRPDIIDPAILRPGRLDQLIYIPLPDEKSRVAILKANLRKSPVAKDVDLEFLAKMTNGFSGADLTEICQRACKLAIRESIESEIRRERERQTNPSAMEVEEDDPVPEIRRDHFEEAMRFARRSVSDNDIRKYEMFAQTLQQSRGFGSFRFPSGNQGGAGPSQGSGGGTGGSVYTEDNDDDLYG
# Sequence of Potassium voltage-gated channel subfamily KQT member 2 (O88943 whole entry W236L): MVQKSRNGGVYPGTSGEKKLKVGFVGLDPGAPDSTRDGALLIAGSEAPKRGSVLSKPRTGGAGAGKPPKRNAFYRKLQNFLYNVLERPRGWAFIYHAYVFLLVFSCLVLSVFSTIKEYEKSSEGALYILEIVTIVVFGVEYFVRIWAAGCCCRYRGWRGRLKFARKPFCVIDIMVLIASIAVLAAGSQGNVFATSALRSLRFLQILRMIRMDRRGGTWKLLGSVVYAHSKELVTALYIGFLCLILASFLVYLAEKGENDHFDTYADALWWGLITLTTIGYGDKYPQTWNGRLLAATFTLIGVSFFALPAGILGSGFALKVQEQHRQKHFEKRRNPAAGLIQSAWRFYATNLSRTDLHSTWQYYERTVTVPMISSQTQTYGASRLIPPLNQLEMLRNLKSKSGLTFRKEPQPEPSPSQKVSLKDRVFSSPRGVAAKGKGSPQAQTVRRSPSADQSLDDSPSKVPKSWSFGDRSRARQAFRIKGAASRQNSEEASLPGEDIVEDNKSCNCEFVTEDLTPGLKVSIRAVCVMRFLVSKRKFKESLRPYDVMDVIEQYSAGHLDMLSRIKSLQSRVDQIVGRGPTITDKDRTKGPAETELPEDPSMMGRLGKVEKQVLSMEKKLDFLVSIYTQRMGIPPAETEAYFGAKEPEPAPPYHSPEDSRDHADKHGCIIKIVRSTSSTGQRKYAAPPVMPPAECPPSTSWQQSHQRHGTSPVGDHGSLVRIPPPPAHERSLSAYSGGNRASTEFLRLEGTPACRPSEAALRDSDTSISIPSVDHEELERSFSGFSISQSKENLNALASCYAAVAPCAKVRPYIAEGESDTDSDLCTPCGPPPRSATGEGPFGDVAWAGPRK
# Sequence of Serine/threonine-protein phosphatase (Q9BPW0 whole entry): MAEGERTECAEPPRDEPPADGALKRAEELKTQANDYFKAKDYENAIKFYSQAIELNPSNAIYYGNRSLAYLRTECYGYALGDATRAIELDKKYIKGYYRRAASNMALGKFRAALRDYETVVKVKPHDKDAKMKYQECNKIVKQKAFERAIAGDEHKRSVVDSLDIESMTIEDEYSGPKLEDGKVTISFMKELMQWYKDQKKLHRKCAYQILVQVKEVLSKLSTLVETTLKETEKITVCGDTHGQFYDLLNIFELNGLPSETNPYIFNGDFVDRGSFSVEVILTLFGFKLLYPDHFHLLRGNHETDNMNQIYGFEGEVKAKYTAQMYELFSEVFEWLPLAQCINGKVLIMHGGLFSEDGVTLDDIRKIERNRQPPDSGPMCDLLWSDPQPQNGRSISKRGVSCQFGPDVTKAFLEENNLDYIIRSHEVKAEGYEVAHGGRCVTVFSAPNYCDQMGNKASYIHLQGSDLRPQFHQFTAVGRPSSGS
# Sequence of Genome polyprotein (P29990 2492-3391 limits assumed): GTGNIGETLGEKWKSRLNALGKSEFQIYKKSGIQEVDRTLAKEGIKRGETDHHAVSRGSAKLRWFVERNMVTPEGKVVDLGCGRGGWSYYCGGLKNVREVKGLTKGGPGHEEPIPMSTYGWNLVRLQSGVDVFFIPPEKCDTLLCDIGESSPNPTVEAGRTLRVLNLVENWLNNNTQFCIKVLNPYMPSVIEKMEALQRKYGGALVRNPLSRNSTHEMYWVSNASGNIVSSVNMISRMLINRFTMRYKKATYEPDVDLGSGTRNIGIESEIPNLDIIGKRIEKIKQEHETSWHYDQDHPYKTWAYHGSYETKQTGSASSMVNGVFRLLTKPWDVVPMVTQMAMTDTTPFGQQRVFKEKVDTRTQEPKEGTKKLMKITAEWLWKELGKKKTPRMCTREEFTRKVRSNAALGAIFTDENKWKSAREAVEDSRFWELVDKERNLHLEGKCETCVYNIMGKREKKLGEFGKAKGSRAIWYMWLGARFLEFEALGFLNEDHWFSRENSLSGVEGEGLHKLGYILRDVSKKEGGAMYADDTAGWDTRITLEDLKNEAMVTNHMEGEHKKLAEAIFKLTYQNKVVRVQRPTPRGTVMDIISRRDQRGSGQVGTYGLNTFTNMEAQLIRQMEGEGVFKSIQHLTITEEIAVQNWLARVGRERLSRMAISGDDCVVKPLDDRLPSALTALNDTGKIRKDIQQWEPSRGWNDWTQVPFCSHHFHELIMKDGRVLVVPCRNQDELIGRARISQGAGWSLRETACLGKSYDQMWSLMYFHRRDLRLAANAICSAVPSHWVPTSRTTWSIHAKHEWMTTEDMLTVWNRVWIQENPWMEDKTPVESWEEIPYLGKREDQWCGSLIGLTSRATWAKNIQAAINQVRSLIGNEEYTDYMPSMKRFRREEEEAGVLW
# Sequence of Sphingosine 1-phosphate receptor 2 (O95136 whole entry): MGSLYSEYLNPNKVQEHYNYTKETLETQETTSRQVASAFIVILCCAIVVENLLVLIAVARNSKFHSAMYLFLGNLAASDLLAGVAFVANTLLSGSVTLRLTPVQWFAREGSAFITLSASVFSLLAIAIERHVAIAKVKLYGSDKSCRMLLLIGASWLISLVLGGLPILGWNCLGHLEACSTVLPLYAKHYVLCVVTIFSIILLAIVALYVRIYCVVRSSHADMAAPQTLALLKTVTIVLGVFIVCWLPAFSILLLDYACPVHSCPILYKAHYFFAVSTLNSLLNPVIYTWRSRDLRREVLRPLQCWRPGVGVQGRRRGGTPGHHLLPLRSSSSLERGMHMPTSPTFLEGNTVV
smiles,measurement,setting,value
Cc1cccc(-n2c(/C=C/c3ccc([N+](=O)[O-])o3)nc3ccccc3c2=O)c1,IC50,Vero [1],10.8 µM (active)
same,EC50,[2],8.27 µM (active)
same,IC50,[3],> 100 µM (active)
same,CC50,Vero [4],> 25 µM (active)
same,EC50,[5],0.552 µM (active)
same,EC50,[6],5.82 µM (active)
same,EC50,[7],> 99 µM (inactive)
same,EC50,[8],0.61 µM (active)
same,EC50,BJ [9],4.86 µM (inconclusive)
same,EC50,BJ [10],3.69 µM (inconclusive)
same,EC50,BJ [11],5.28 µM (inconclusive)
same,AC50,[12],1.72 µM (active)
Cc1nnc(NC(=O)c2nc(S(=O)(=O)Cc3ccccc3C)ncc2Cl)s1,AC50,[13],0.812 µM (active)
same,AC50,[14],> 380 µM (inactive)
same,AC50,[15],14.5 µM (active)
same,EC50,Protein RecA,> 380 µM (inactive)
same,IC50,[16],4.41 µM (active)
same,AC50,[17],57 µM (active)
same,EC50,[18],692 µM (active)
CCOC(=O)c1nn(-c2ccc(C)cc2)c(=O)c2c(N)scc12,AC50,[14],89.9 µM (active)
same,EC50,Protein RecA,11.4 µM (active)
same,IC50,[19],> 67 µM (not active)
same,IC50,[20],9.99 µM (active)
Cc1coc2c(O)cc3c(c12)OC1(N2CCCCC2)C(=O)NCCCC31 (centres undefined),IC50,Nonstructural protein 1,> 100 µM (active)
same,IC50,Genome polyprotein,27.4 µM (active)
same,EC50,[21],11 µM (active)
same,IC50,[22],> 50 µM (not active)
same,EC50,[23],11.3 µM (active)
same,IC50,[24],35.2 µM (active)
Cc1cc(C(=O)COC(=O)c2ccco2)c(C)n1Cc1ccccc1,EC50,[25],> 30 µM (not active)
CCCC[C@H](CN[C@@H](CNC)[C@H](C)CC)NCCC12CCC(CC1)C2,IC50,[26],6.54 µM (active)
same,IC50,[27],> 20 µM (inactive)
N#Cc1ccc(Nc2nc(-c3ccc(O)cc3O)cs2)cc1,IC50,[28],4.71 µM (active)
same,IC50,[29],> 50 µM (not active)
